# Reference: US8173682B2, “Substituted pyridones as inhibitors of poly(ADP-ribose) polymerase (PARP)” (Aventis Pharmaceuticals Inc., priority 2004, dated 2012)
# Counter-ions that a name gives are not always drawn.
# Experiments:
# [1] = target: T1, recombinant human PARP (PARP1) (Homo sapiens, UniProt P09874); test: PARP enzyme assay, Method A (radioactivity or 'ELISA' enzyme assay with partially purified enzyme); format: biochemical; conditions: recombinant human PARP preparation, radioactive or ELISA enzyme assay
# T1 construct: Full length human PARP (PARP1) is assembled from PCR fragments; His6 tag with TEV site, from the pFastBac-HTb vector (own knowledge of the vector); made in house; host or cells: insect cells, baculovirus (Bac-to-Bac, Gibco-BRL)
# T1 sequence (P09874 whole entry, the tested form may be a part): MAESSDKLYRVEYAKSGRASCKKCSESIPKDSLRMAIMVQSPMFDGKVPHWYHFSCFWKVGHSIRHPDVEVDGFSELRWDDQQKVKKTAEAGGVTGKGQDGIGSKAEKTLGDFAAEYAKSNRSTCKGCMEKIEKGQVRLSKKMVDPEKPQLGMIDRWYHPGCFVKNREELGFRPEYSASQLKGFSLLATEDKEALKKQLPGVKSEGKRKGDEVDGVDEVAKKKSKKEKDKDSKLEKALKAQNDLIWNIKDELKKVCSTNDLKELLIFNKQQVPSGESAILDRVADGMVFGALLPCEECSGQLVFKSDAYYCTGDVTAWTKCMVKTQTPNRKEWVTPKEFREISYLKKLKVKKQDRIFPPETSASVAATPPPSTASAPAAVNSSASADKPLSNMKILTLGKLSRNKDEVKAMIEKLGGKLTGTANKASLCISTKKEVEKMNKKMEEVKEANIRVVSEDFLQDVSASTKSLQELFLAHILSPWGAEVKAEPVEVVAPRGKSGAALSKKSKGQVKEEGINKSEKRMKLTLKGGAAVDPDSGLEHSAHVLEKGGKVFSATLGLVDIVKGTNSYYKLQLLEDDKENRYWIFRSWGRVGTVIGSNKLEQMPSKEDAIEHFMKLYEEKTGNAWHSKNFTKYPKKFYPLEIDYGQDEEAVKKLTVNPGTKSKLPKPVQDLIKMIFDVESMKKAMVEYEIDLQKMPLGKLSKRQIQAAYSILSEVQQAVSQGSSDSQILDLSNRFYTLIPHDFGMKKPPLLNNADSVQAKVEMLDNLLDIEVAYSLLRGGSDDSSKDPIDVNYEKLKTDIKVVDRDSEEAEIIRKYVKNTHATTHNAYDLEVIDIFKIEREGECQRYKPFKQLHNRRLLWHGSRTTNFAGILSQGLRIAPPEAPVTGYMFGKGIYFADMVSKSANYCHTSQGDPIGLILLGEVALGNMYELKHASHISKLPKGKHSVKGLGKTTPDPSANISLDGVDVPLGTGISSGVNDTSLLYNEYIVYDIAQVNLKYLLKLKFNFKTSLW
# How it was run: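 Partially purified recombinant full-length His-tagged human PARP1, baculovirus-expressed. Radioactive format: 100 μg/mL sonicated DNA, 100 μg/mL histones, 100 mM Tris pH 8.0, 10 mM MgCl2, 200 μM labeled NAD, 10 min 37 °C or 60 min RT, TCA-precipitated counts. ELISA format: 250 μM NAD plus biotin-NAD on histone plates, TMB A450.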
# [2] = system: intracellular synthesis of poly(ADP-ribose) in HL60 cells; test: Cell-based PARP assay (poly(ADP-ribose) immunodetection in fixed cells); conditions: Homo sapiens, HL-60, overnight incubation with compound, serum-free media
# Method: The following example illustrates the efficacy of the compounds of this invention in inhibiting the effects of PARP in a cell based assay.
# Reagents: Media RMPI 1640+Glutamax: Gibco 61870-044); TBST/milk, TBST (Sigma T93039) containing 5% skimmed milk (Nestle Carnation nonfat dry milk)
# HL60 cells at […] in serum free media are seeded into the wells of a 96-well plate at 100 μL/well. The plate is pre-incubated for 3 hr under normal tissue culture conditions. One hundred μL of serum-free media containing compound at 2× the required concentration in 0.6% DMSO are added (or 0.6% DMSO only to controls and blanks). The plate is incubated overnight under normal tissue culture conditions, then centrifuged at 190×g for 5 min at 4° C. to pellet cells. The media is carefully removed by aspiration, and the cells are incubated in 100 μL/well ice-cold 0.56% KCl for 2 min on ice. The plate is centrifuged as above to pellet cells, the KCl removed by aspiration, and 100 μL/well ice-cold methanol added. After 4 min on ice, methanol is removed by aspiration and the cells air-dried for 10-15 min at rt. The cells are washed with PBS×3, then washed with TBST/milk (1 wash, 5 min incubation at rt). The cells are incubated with 100 μL/well 0.25% Triton X 100 in PBS for 10 min at RT, then washed x# with PBS and ×1 with TBST. The cells are blocked for 1 hr with TBST/milk (200 μL/well) and then washed ×1 with TBST. The fixed cells are incubated with primary antibody (Calbiochem cat no. 528815) at 1:2000 dilution in TBST/milk (100 μL/well, overnight at 4 deg C.). The cells are washed with TBST (2 rinses, 1×15 min, 2×5 min at RT). The cells are incubated with secondary antibody (anti-rabbit Ig-biotin conjugate, Amersham RPN1004) in TBST/milk at 1:3500 dilution, 100 μL/well for 1 hr at RT. The cells are washed with TBST (2 rinses, 1×15 min, 2×5 min at RT). The cells are then incubated with 100 μL/well of 4-MUP (Sigma, M3168) in the dark for 4 hrs. The fluorescence is read using a plate reader (excitation at 360 nm, emission at 440 nm). To calculate compound effects, the fluorescence of the blank (no cells) is subtracted from all data. Fluorescence obtained with a standard cell-permeable potent inhibitor at 30 μM is subtracted from all other groups as this appears to represent a true blank. Compound effects can then be determined: a PARP inhibitor blocks the intracellular synthesis of poly(ADP-ribose), and results in a decreased reactivity (reduced final fluorescence) with primary antibody in the fixed and permeabilized cells.
# The results obtained from this study are expressed as EC50 (median effective concentration of the test compound that was effective in preventing the cell death—expressed in micromolar (μM) concentration) for each of the tested compounds and are summarized in Table 2.
# [3] = target: recombinantly expressed human PARP-1 enzyme (Homo sapiens, UniProt P09874); test: PARP enzyme assay, Method B (tritium-labeled NAD incorporation); format: biochemical; conditions: Method B; 200 μM NAD, room temperature 1 hour, pH 8.0; read-out: IC50 (μM)/Method B
# Chain of recombinantly expressed human PARP-1 enzyme (P09874 whole entry): as the sequence (P09874 whole entry, the tested form may be a part) above
# How it was run: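 DNA-activated purified recombinant enzyme (2 μg/mL) incubated with test compound for 1 h at room temperature, pH 8.0, with 200 μM NAD plus tritiated NAD, DNA and histones. TCA-precipitated radiolabelled protein collected on glass-fibre filters and counted; IC50 is the concentration halving incorporation versus no-inhibitor control.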
IC50 [1],EC50 [2],IC50 [3],SMILES
0.08 µM,0.03 µM,–,"CCc1cc(-c2ccc(S(=O)(=O)NCCc3cccnc3)s2)c(C)[nH]c1=O [Example 107, 5-(5-Ethyl-2-methyl-6-oxo-1,6-dihydropyridin-3-yl)thiophene-2-sulfonic acid (2-pyridin-3-yl-ethyl)amide hydrochloride]"
0.42 µM,0.43 µM,–,"CCc1cc(-c2ccc(S(=O)(=O)NCCCN3CCCCC3)s2)c(C)[nH]c1=O [Example 63, 5-(5-Ethyl-2-methyl-6-oxo-1,6-dihydro-pyridin-3-yl)-thiophene-2-sulfonic acid (3-piperidin-1-yl-propyl)-amide hydrochloride]"
0.19 µM,2.94 µM,–,"CCc1cc(-c2ccc(S(=O)(=O)NCc3ccc(C(F)(F)F)cc3)s2)c(C)[nH]c1=O [Example 26, 5-(5-Ethyl-2-methyl-6-oxo-1,6-dihydropyridin-3-yl)thiophene-2-sulfonic acid 4-trifluoromethylbenzylamide]"
0.2 µM,0.22 µM,–,"CCc1cc(-c2ccc(S(=O)(=O)NCCN3CCCC3)s2)c(C)[nH]c1=O [Example 95, 5-(5-Ethyl-2-methyl-6-oxo-1,6-dihydropyridin-3-yl)thiophene-2-sulfonic acid (2-pyrrolidin-1-yl)ethylamide hydrochloride]"
0.08 µM,0.02 µM,–,"CCc1cc(-c2ccc(S(=O)(=O)NCc3ccncc3)s2)c(C)[nH]c1=O [Example 110, 5-(5-ethyl-2-methyl-6-oxo-1,6-dihydropyridin-3-yl)thiophene-2-sulfonic acid (pyridin-4-ylmethyl)amide hydrochloride]"
0.24 µM,0.97 µM,–,"CCc1cc(-c2ccc(CNCCOc3ccccc3)s2)c(C)[nH]c1=O [Example 146, 3-Ethyl-6-methyl-5-{5-[(2-phenoxyethylamino)-methyl]thiophen-2-yl}-1H-pyridin-2-one hydrochloride]"
0.35 µM,12.2 µM,–,"CCc1cc(-c2ccc(CNC(C)c3ccccc3)s2)c(C)[nH]c1=O (stereo not shown) [Example 135, 3-Ethyl-6-methyl-5-{5-[(1-phenyl-ethylamino)-methyl]thiophen-2-yl}-1H-pyridin-2-one hydrochloride]"
0.31 µM,0.12 µM,–,"CCc1cc(-c2noc(C)n2)c(C)[nH]c1=O [Example 22, 3-Ethyl-6-methyl-5-(5-methyl-1,2,4-oxadiazol-3-yl)-1H-pyridin-2-one]"
0.85 µM,0.56 µM,–,"CCc1cc(-c2ccc(S(=O)(=O)NCCN(C)C)s2)c(C)[nH]c1=O [Example 93, 5-(5-Ethyl-2-methyl-6-oxo-1,6-dihydropyridin-3-yl)thiophene-2-sulfonic acid (2-dimethylaminoethyl)amide hydrochloride]"
0.38 µM,0.8 µM,–,"CCc1cc(-c2ccc(S(=O)(=O)NCCNC(C)=O)s2)c(C)[nH]c1=O [Example 119, N-{2-[5-(5-Ethyl-2-methyl-6-oxo-1,6-dihydropyridin-3-yl)thiophene-2-sulfonylamino]ethyl}acetamide]"
0.46 µM,14.7 µM,–,"CCc1cc(-c2ccc(CNC(C)CCc3ccccc3)s2)c(C)[nH]c1=O (stereo not shown) [Example 136, 3-Ethyl-6-methyl-5-{5-[(1-methyl-3-phenyl-propylamino)-methyl]thiophen-2-yl}-1H-pyridin-2-one hydrochloride]"
0.3 µM,3.11 µM,–,"CCc1cc(-c2ccc(S(=O)(=O)N3CCC(N4CCCCC4)CC3)s2)c(C)[nH]c1=O [Example 67, 3-Ethyl-6-methyl-5-{5-[(4-piperidin-1-yl)piperidine-1-sulfonyl]thiophen-2-yl}-1H-pyridin-2-one hydrochloride]"
0.41 µM,0.52 µM,–,"CCc1cc(-c2ccc(CN3CCCCC3)s2)c(C)[nH]c1=O [Example 148, 3-ethyl-6-methyl-5-(5-piperidin-1-ylmethy-thiophen-2-yl)-1H-pyridin-2-one hydrochloride]"
0.43 µM,30.8 µM,–,"CCc1cc(-c2ccc(CN3CCCC(O)C3)s2)c(C)[nH]c1=O (stereo not shown) [Example 126, 3-Ethyl-5-[5-(3-hydroxypiperidin-1-ylmethyl)thiophen-2-yl]-6-methyl-1H-pyridin-2-one hydrochloride]"
0.31 µM,0.33 µM,–,"CCc1cc(-c2ccc(S(=O)(=O)N3CCC(O)C3)s2)c(C)[nH]c1=O (stereo not shown) [Example 85, 3-Ethyl-5-[5-(3-hydroxypyrrolidine-1-sulfonyl)thiophen-2-yl]-6-methyl-1H-pyridin-2-one]"
0.17 µM,0.05 µM,–,"CCc1cc(-c2ccc(S(=O)(=O)NCc3cccnc3)s2)c(C)[nH]c1=O [Example 101, 5-(5-Ethyl-2-methyl-6-oxo-1,6-dihydropyridin-3-yl)-thiophene-2-sulfonic acid (pyridin-3-ylmethyl)amide hydrochloride]"
0.2 µM,0.5 µM,–,"Cc1[nH]c(=O)c2c(c1-c1cccc(C#N)c1)CCCC2 [Example 5, 3-(3-Methyl-1-oxo-1,2,5,6,7,8-hexahydroisoquinolin-4-yl)benzonitrile]"
0.26 µM,0.26 µM,–,"CCc1cc(-c2ccc(S(=O)(=O)N3CCCC(Cn4ccnc4)C3)s2)c(C)[nH]c1=O (stereo not shown) [Example 70, 3-Ethyl-5-{5-[(3-imidazo-1-yl)methylpiperidine-1-sulfonyl]thiophene-2-yl}-6-methyl-1H-pyridin-2-one hydrochloride]"
0.15 µM,30 µM,–,"CCc1cc(-c2ccc(S(=O)(=O)NCc3nc4ccccc4[nH]3)s2)c(C)[nH]c1=O [Example 118, 5-(5-Ethyl-2-methyl-6-oxo-1,6-dihydro-pyridin-3-yl)thiophene-2-sulfonic acid (1H-benzimidazol-2-ylmethyl)amide hydrochloride]"
0.39 µM,1.43 µM,–,"CCc1cc(-c2ccc(CNCC3CCCCC3)s2)c(C)[nH]c1=O [Example 143, 5-(5-Cyclohexylmethylaminomethylthiophen-2-yl)-3-ethyl-6-methyl-1H-pyridin-2-one hydrochloride]"
0.76 µM,4.88 µM,–,"CCc1cc(-c2ccc(S(=O)(=O)N3CCN(c4ccc(F)cc4)CC3)s2)c(C)[nH]c1=O [Example 25, 3-Ethyl-5-{5-[4-(4-fluorophenyl)piperazine-1-sulfonyl]thiophen-2-yl}-6-methyl-1H-pyridin-2-one]"
0.1 µM,14.2 µM,–,"CCc1cc(-c2ccc(S(=O)(=O)NCc3cc(F)cc(F)c3)s2)c(C)[nH]c1=O [Example 27, 5-(5-Ethyl-2-methyl-6-oxo-1,6-dihydropyridin-3-yl)thiophene-2-sulfonic acid 3,5-difluorobenzylamide]"
–,–,4.1 µM,"CCc1cc(-c2cncc(C(=O)NCc3ccc(O)c(OC)c3)c2)c(C)[nH]c1=O [Example 265, 5′-Ethyl-2′-methyl-6′-oxo-1′,6′-dihydro-[3,3′]bipyridinyl-5-carboxylic acid 4-hydroxy-3-methoxy-benzylamide]"
–,–,1.9 µM,"CCc1cc(-c2cncc(C(=O)NCCc3nc4ccccc4[nH]3)c2)c(C)[nH]c1=O [Example 245, 5′-Ethyl-2′-methyl-6′-oxo-1′,6′-dihydro-[3,3′]bipyridinyl-5-carboxylic acid [2-(1H-benzoimidazol-2-yl)-ethyl]-amide]"
